Source: a melting point compilation (Tetko et al.)

Structure (SMILES)	melting point
CC1(C)OC2OC(CO)C(O)C2O1 (configuration not stated)	68 to 70 °C
N[C@@H]1CC[C@H](C(=O)O)C1	192 °C
NCCCNCCN	10 °C
O=[N+]([O-])c1ccc(S(=O)(=O)N2CCOCC2)cc1	173 to 175 °C
NS(=O)(=O)c1c(F)cccc1F	190 °C
CCC12CC3CC(CC(Br)(C3)C1)C2	23 to 24 °C
CC1=NCCS1	-101 °C
ClCC1CCN(c2ncnc3ccsc23)CC1	99 to 100 °C
O=C(CS(=O)C(c1ccccc1)c1ccccc1)NO (configuration not stated)	159 °C
CC12CCC3C(C(=O)CC4CC(O)(C(Cl)(Cl)Cl)CCC43C)C1CCC2=O (configuration not stated)	248 to 254 °C
Cc1cc(NC(=O)C=CC(=O)O)no1	165 to 172 °C
CCNC(=O)NC(=O)C(C#N)=NOC	161 °C
CCCCCCCCCCCCC(Oc1ccc([N+](=O)[O-])cc1)C(=O)NN (configuration not stated)	127 °C
C1CCCSCC1	0.5 °C
C=CC1(C)C=C2CCC3C(C)(C(=O)O)CCCC3(C)C2CC1 (configuration not stated)	218 °C
c1cc2c(c3c1CCCC3)CCCC2	16.7 °C
Cc1cc(C)c(NC(=O)CN(CC(=O)O)CC(=O)O)c(C)c1	218 to 221 °C
FC(F)(F)c1ccnc(N2CCCNCC2)n1	50 to 51 °C
COC(=O)C1=C(C(=O)OC)C2(COC(=O)C(C)NC(C)=O)c3ccccc3C1c1ccccc12 (configuration not stated)	180 °C
O=C(O)c1c(C(F)(F)F)ccnc1Cl	159 °C
Brc1cccc(N2CCOCC2)n1	50 to 51 °C

Structure (SMILES)	melting point
CSc1scc2c1C(=NO)CC(C)(C)C2	151 to 154 °C
O=C(NC(=O)c1c(F)cccc1F)Nc1ccc(OC(F)(F)C(F)OC(F)(F)F)c(Cl)c1 (configuration not stated)	178 °C
CC(CO)C1=C(O)C(=O)C2=C(CC(O)C3C(C)(C)CCCC23C)C1=O (configuration not stated)	186 °C
O=C(O)C1(c2cccc(F)c2)CCCC1	149 to 153 °C
ClC(Cl)=C(c1ccc(Cl)cc1)c1ccc(Cl)cc1	89 °C
CC(=O)Nc1sc2c(c1C#N)CCCC2	215 to 217 °C
Cc1cc(C)c(NC(=O)C(Br)C(C)(C)C)c(C)c1 (configuration not stated)	185 to 188 °C
CCCCCCCCCCCCCCCCOc1ccc(N)cc1	60 °C
Cc1ccn2nc(S(=O)(=O)Nc3c(F)cccc3F)nc2n1	252 °C
C=CCOOC(C)(C)c1ccccc1	60 °C
CC(Oc1ccc(Oc2nc3ccc(Cl)cc3o2)cc1)C(=O)O (configuration not stated)	158 °C
CC(=O)OCC1=CC2OC(=O)C3=COC(OC4OC(CO)C(O)C(O)C4O)C1C32 (configuration not stated)	132 °C
NS(=O)(=O)C(F)(F)F	118 °C
CCCCCCCCSCCO	0 °C
CC[C@H](N)P(=O)(O)O	260 °C
O=C(Cl)c1ccsc1	50 to 54 °C
N#Cc1ccnc(N2CCCCC2)c1	55 to 57 °C
CSc1nnc(S)s1	136 °C
CCOC(=O)C1=C(CBr)NC(=O)NC1C (configuration not stated)	148 °C
FC(F)(F)c1ccc2c(c1)NCCC2	32 °C
CC(CO)c1c(O)c(O)c2c(c1O)C(=O)C(=O)C1C(C)(C)CCCC21C (configuration not stated)	239 °C

Structure (SMILES)	melting point
CC1CCCC(C)C1 (configuration not stated)	-90.1 °C
COc1nc(N)nc(SC)n1	200 to 202 °C
COC(=O)C=Cc1ccc(OC)c(OC2CCCC2)c1	54 to 57 °C
CS(=O)(=O)n1ccnc1	86 to 88 °C
O=C1C(Br)=C(Br)C(=O)C(Br)=C1Br	292 to 294 °C
CC(=O)c1c(C)c[nH]c1C	138 °C
N#Cc1cnn2c(C(F)(F)F)cc(C(F)(F)F)nc12	75 to 77 °C
O=C(O)c1cc(Cl)sc1Cl	148 °C
CCOC(=O)c1c(NC(=O)CN(CC)CC)sc2c1CCCC2	74 to 75 °C
CCCCCCCCCCCCCC=CC(O)C(CO)NC(=O)CCCCCCCCCCCCCCCCC (configuration not stated)	99 to 101 °C
Nc1cn[nH]c1	81 °C
CN(C)C(=O)Cl	-33 °C
O=C(O)C1CCNCC1	336 °C
O=Cc1ccc(N2CCCC2)c([N+](=O)[O-])c1	103 to 105 °C
C=CCN=C(NCC=C)c1cc(C(C)(C)C)c(O)c(C(C)(C)C)c1	201 to 202 °C
CN(C(=O)CCl)c1c2c(nn1C)CCCC2	84 to 86 °C
CC(=O)OC1C(O)C2=C(C(=O)C(OC(C)=O)C3(CC3C)C2=O)C2(C)CCC(OC(C)=O)C(C)(C)C12 (configuration not stated)	116 to 117 °C
O=Cc1cccc(O)c1O	104 to 109 °C
C=CC(=C)Cl	-130 °C
Brc1ccc2[nH]cnc2c1	130 to 131 °C

Second part, the molecule after the results:

melting point	Structure (SMILES)
171 to 172 °C	CC(=O)c1sc2nc(-c3cccs3)cc(C(F)(F)F)c2c1N
82 to 84 °C	CSC(SC)=C(C#N)C(=O)c1ccc(Cl)cc1
259 to 260 °C	COc1cc(C=Nn2c(C)cc(C)c(C#N)c2=O)ccc1O
144 °C	ClC(=C(Cl)c1ccccc1)c1ccccc1
125 to 129 °C	Cc1ccccc1CC(NC(=O)OC(C)(C)C)C(=O)O (racemic)
142 °C	O=C(C=Cc1ccccc1)c1cccc(C(=O)C=Cc2ccccc2)c1
98 to 100 °C	O=Cc1cccn1-c1ccc(I)cc1
123 °C	O=[N+]([O-])c1cccc(C=NNc2ccccc2)c1
100 °C	O=C(Cl)c1csc(-c2ccccc2)n1
130 to 133 °C	CSc1nn(-c2ccccc2)cc1C(N)=S
139 to 141 °C	c1cc2c(ccc3nonc32)nn1
135 °C	CCOC(=O)Nc1ccc2cc3ccc(N)c(CO)c3nc2c1
73 °C	Cc1cc(C)c2c(c1C)C(=O)C2
162 °C	c1ccc2c(c1)cc1ccc3cccc4c5ccccc5c2c1c34
260 °C	Cc1nn(C)c2sc(C(=O)O)cc12
171 °C	O=C(C1=NOC2C(=O)N(c3ccc(Cl)cc3)C(=O)C12)c1ccco1 (configuration not stated)
65 °C	Cc1cc2ccccc2cc1CCl
127 to 129 °C	Clc1nccc(-c2cccs2)n1
155 to 157 °C	COC(=O)c1ccccc1C(=O)c1cc(C)c(O)c(C)c1
135 to 137 °C	CCOC(=O)c1ccc(NC(=O)C(F)(F)C(F)(F)C(F)(F)C(F)(F)C(F)(F)C(F)(F)C(F)(F)C(F)(F)F)cc1
173 to 175 °C	N=C(N)NCCC[C@H](NC(=O)OCc1ccccc1)C(=O)O
79.8 °C	Oc1cccc2sccc12

melting point	Structure (SMILES)
214 to 216 °C	CSc1nc(N)nc(-c2cc(Cl)cc(Cl)c2)n1
91 °C	CCOC(=O)N1C(=O)c2ccccc2C1=O
111 to 112 °C	Cc1csc(N)c1-c1nc2ccccc2s1
31 °C	CC(C)COc1ccc2ccccc2c1
178 °C	CC(=O)Oc1c(-c2ccccc2)n(C(C)=O)c2cc([N+](=O)[O-])ccc12
144 to 148 °C	O=C(c1ccccc1)c1ccc(O)c(O)c1
368 °C	c1ccc2c(c1)ccc1c2ccc2c3ccccc3ccc21
97 to 98 °C	Cc1noc(-c2ccc(Br)cc2)n1
48.5 °C	CC(C)(Oc1ccc(Cl)cc1)C(=O)OCc1cccnc1
140 to 141 °C	O=C(O)c1ccccc1C(=O)c1ccc(F)cc1
144 °C	COc1ccc(C(=O)c2ccc(OC)cc2)cc1
270 °C	NC(=O)NN=Cc1ccc2c(Br)cccc2c1
93 °C	C(=NN=Cc1ccccc1)c1ccccc1
163 to 165 °C	CSc1nc(N)c(C(=O)c2ccc(Br)cc2)s1
137 °C	COc1ccc(C(=CCC(=O)O)C(C)(C)C(=O)O)cc1
93 °C	CC(=C(C#N)C#N)c1ccc(Cl)cc1
79.2 °C	CCOC(=O)Cn1c(=O)sc2cccc(Cl)c21
121 °C	CN(C)c1ccc(CCC2CCc3ccccc3N2C(=O)c2ccccc2)cc1 (configuration not stated)
157 to 158 °C	Nc1ccccc1C(=NO)c1ccccc1
150 °C	O=Cc1ccc(-c2ccc(C(=O)O)cc2)cc1
269 to 270 °C	O=C(O)c1ccc(-n2cccn2)cc1
187 to 190 °C	COC(=O)c1ccc(C(=O)O)nc1

melting point	Structure (SMILES)
109 °C	COc1ccc(C(=O)c2ccc(C)cc2)cc1OC
144 to 145 °C	CCOC(=O)c1cc2cc(OC(F)(F)F)ccc2[nH]1
117 °C	CC(=O)Nc1ccccc1CCc1ccccc1
57 to 60 °C	C=CCSc1sc(C(=O)OCC)c2c1C(=O)CCC2
211 °C	Cc1ccc(C(=O)c2nn3c(nc(=O)c4ccccc43)s2)cc1
100 to 104 °C	CC(C)(C)OC(=O)NC(COC1CCCCO1)CS(=O)(=O)c1ccccc1 (configuration not stated)
159 °C	COc1cc(C(=O)O)ccc1C
80 °C	O=C(OCc1ccccc1)ON1C(=O)CCC1=O
193 to 194 °C	CC12CC(c3ccccc3)C([N+](=O)[O-])C(O1)c1ccccc1N2 (configuration not stated)
177 °C	[O-][P+](c1ccccc1)(c1ccccc1)C1C=C(c2ccccc2)OC2=C1CCCC2 (configuration not stated)
155 °C	COc1cccc(OC)c1P(c1c(OC)cccc1OC)c1c(OC)cccc1OC
144 °C	Cc1c(C(C)OC(=O)CCC(=O)O)oc2ccc(C3=CC(=O)OC3)cc12 (configuration not stated)
183 °C	O=c1c(=O)c2cc(Cl)c(Cl)cc12
165 °C	O=C(O)c1cccc(N=C=S)c1
201 to 203 °C	c1ccc(-c2cc3c(ccc4nonc43)nn2)cc1
102 °C	COc1ccc(C#N)c2ccccc12
170 °C	Nc1nc(-c2ccc(Br)s2)cs1
46 to 49 °C	CCCCCOc1ccc(O)cc1
180 °C	c1ccc2sc(SSc3nc4ccccc4s3)nc2c1
83 to 84 °C	Brc1ccc(-c2ccco2)cc1
178 °C	CCOC(=O)C1=C(COCCN)NC(C)=C(C(=O)OC)C1c1ccccc1Cl (configuration not stated)
